Test: ESCAR drug release tests for acetaminophen solution (factor screening)
Assay type: in vitro ADME
Conditions: center position injection, 10 mg/mL solution
Protocol: Acetaminophen solution (10 mg/mL) and the subcutaneous chamber (Version 1; FIG. 2C) were used across different runs. Both the “lymphatic circulation” and “blood circulation” chambers were filled with 75 mL of PBS (pH 7.4), and the subcutaneous chamber was filled with 2.8 mL of HA/PBS solution. At the surrounding areas of the interfaces, a layer of mounting tape was assembled to prevent liquid leakage. Sequentially, the “subcutaneous”/“blood circulation” interface was assembled with a SpectraPor® dialysis membrane (MWCO: 50 kDa), and the “subcutaneous”/“lymphatic circulation” interface was assembled with a SpectraPor® dialysis membrane (MWCO: 300 kDa). All membranes were pre-soaked in DI water for at least 1 h before use. The drug release tests were conducted at 34° C. in a convective oven, with mild magnetic stirring in the “blood circulation” and “lymphatic circulation” chambers. […] A 18-run full factorial experimental design was employed to evaluate three factors, HA concentration (three levels: 2.5, 5, 10 mg/mL), injection volume (three levels: 0.25, 0.5, 1 mL), and injection position/needle tip position to the membrane at the “subcutaneous”/“blood circulation” interface (two levels: 0.2, 0.5 cm). At the pre-set time points, 1.5 mL of aliquots were withdrawn from the “blood circulation” chamber with the replacement of the same volume of PBS. Each run was conducted in triplicate.

SMILES: CC(=O)Nc1ccc(O)cc1 [acetaminophen, Acetaminophen]
- release fraction (%) at 8-hr (2.5 mg/mL HA solution): ~60%
- release fraction (%) at 8-hr (5 mg/mL HA solution): ~30%
- release fraction (%) at 8-hr (10 mg/mL HA solution): ~15%
- release fraction (%) at 8-hr (subcutaneous medium PBS): ~80%
